In patent publication US8440442B2, “Method of assaying 5-FU” (Myriad Genetics, Inc, priority 2009, dated 2013):

Key:
[1] = biological target: T1, dihydropyrimidine dehydrogenase (DPD) (Homo sapiens, UniProt Q12882); assay: Low concentrations of gimeracil in 5-FU spiked blood, plasma 5-FU initial and after 24 hr; format: biochemical; conditions: for 5-FU concentration, Initial / 5-FU concentration, 24 hr: blood spiked 500 ng/mL 5-FU; for 5-FU concentration, Initial: after plasma collection; for 5-FU concentration, 24 hr: plasma 24 hours at room temperature
T1 construct: from tissue; host or cells: donor whole blood (K2EDTA), plasma separated from it, and WBC/buffy coat
T1 sequence (Q12882 4-1025): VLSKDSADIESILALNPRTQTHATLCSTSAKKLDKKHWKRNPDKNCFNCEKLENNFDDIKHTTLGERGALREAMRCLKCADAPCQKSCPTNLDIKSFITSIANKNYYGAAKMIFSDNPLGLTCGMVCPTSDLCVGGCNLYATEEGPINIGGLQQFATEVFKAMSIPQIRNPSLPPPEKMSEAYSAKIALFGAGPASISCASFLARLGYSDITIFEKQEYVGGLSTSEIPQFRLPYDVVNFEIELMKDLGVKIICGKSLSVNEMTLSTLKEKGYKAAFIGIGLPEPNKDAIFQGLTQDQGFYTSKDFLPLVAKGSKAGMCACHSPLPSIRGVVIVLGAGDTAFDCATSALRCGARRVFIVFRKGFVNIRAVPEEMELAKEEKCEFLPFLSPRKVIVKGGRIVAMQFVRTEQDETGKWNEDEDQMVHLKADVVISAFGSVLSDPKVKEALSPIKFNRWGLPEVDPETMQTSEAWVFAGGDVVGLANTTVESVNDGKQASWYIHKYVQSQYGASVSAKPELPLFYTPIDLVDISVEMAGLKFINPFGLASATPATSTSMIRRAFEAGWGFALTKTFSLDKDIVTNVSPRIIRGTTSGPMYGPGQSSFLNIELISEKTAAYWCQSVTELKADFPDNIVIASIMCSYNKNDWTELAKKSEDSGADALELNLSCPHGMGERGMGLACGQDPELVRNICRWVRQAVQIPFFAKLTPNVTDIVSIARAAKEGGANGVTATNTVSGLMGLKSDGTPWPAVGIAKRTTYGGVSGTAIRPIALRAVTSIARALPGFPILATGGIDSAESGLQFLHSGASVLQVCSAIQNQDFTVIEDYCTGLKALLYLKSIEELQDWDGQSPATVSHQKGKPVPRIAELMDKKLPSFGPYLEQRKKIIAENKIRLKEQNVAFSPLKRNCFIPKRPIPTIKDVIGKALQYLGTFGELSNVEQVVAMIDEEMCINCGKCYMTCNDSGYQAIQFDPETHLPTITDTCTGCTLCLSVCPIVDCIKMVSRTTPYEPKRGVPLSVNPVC
Procedure: (§1) In the following illustrative examples, 5-FU was measured using an antibody-based agglutination assay on the Olympus AU680 Analyzer using an antibody disclosed in U.S. Pat. No. 7,205,116. Specifically, the concentration of 5-FU in a sample is determined based on the absorbance of a sample, which is determined by the amount of aggregation by the nanoparticles. The system requires two reagents, which when mixed in the absence of free 5-FU will form large aggregates of nanoparticles and scatter light to result in a higher absorption value. In the presence of free 5-FU, the agglutination reaction becomes somewhat inhibited and scattering of light is less, causing a lower absorption value. The instrument is calibrated twice monthly, and a curve is generated (Absorbance vs. 5-FU concentration). Absorbance values from individual samples are compared against this curve to determine concentration.
(§2) Generally in the agglutination assay, 95 μl of a buffer containing 5-FU-labeled amino-dextran is pipetted to a cuvette, followed by 7 μL of a filtered plasma sample. The sample and reagent are mixed and then incubated for about 3.5 minutes. 95 μl of 5-FU antibody-conjugated nanoparticles is pipetted into the cuvette and mixed. The complete reaction incubates for about 6.2 minutes. A series of 27 measurements at 600 nm are taken at regular intervals by the AU680 analyzer throughout this process, and 5-FU concentration is calculated using the measurements from two specific time points.
Four tubes of blood (spray-on K2EDTA tubes, 10 mL) was drawn from each of five donors, and gently inverted several times to mix anti-coagulant. Blood was pooled by donor into conical tubes. An aliquot of each donor's blood was transferred to a clean tube. A calculated volume of 5-FU stock (at 200 ng/μL) was added to each blood sample to achieve a final concentration of 500 ng/mL 5-FU, and tubes were inverted to mix. Spiked blood was aliquotted into clean tubes, nine tubes per donor and 3.5 mL of blood per tube. Gimeracil was added to the tubes at a final concentration of 200, 400, or 600 ng/mL for each tube. In addition, in control samples, methanol was added to the blood instead of gimeracil, in order to serve as a negative control. The blood tubes sat at room temperature for 45 minutes after the addition of the gimeracil or methanol. At the appropriate times, the blood tubes were centrifuged at 2000×g for 10 minutes at room temperature to separate plasma. Plasma was aspirated immediately after centrifugation, and the plasma was dispensed into clean tubes. Plasma samples were run using standard conditions for Olympus AU680 analyzer (200 μL, spin for 15 minutes at 12,500 rpm). Measurements of 5-FU concentration were taken after plasma collection (“initial”) and 24 hours (“24 hr”) thereafter. For the 24 hr measurement, plasma was stored at room temperature during the 24 hours. As shown in Table 2 and FIG. 4, low concentrations of gimeracil in blood is also effective at inhibiting DPD-mediated degradation of 5-FU. The overall percent difference in 5-FU concentration between the samples containing 200 ng/mL and 600 ng/mL gimeracil is less than 1%.

[2] = biological target: T1, dihydropyrimidine dehydrogenase (DPD); assay: Extended incubation of gimeracil in blood before plasma separation; format: biochemical; conditions: gimeracil 1200 ng/mL; for 5-FU Concentration 24 hrs after plasma separation / 5-FU Concentration Upon plasma separation: 500 ng/mL 5-FU
Procedure: as §1, §2
Six tubes of blood (spray-on K2EDTA tubes, 6 mL) was drawn from each of six donors, and the blood tubes were inverted several times to mix the anti-coagulant into the blood. Blood tubes were pooled and kept separate by donor. An aliquot of each donor's blood was transferred to a new tube, and a calculated volume of 5-FU stock (at 200 ng/μL) was added to each blood sample to achieve a final concentration of 500 ng/mL 5-FU. Spiked blood samples were aliquotted to clean tubes, 4 mL of blood to each of 8 tubes per donor. Gimeracil in methanol solvent was added to the blood tubes to reach a final concentration of 1200 ng/mL. For negative control, methanol only is added to the control blood tube. Blood tubes sat at room temperature for 45 minutes, 24 hours, or 48 hours before plasma separation. At the appropriate times, the blood tubes were centrifuged at 2000×g for 10 minutes at room temperature for plasma separation. The plasma was aspirated immediately after centrifugation and dispensed into clean cryovials. For 5-FU assays, the plasma samples were run under standard conditions for the Olympus AU680 analyzer, as described above (200 μL, spin for 15 minutes at 12,500 rpm). Measurements of 5-FU concentration were taken after plasma collection and for 2 days following the initial reading. Plasma was stored at room temperature during the interval.

Oc1cc(O)c(Cl)cn1 [Gimeracil, 5-chloro-2,4-dihydroxypyridine]
overall percent difference in 5-FU concentration between samples containing 200 ng/mL and 600 ng/mL gimeracil ([1]; 500 ng/mL 5-FU spiked blood): less than 1%
5-FU concentration, Initial ([1]; gimeracil 200 ng/mL): 518.7
5-FU concentration, 24 hr ([1]; gimeracil 200 ng/mL): 523.4
5-FU concentration, Initial ([1]; gimeracil 400 ng/mL): 523.0
5-FU concentration, 24 hr ([1]; gimeracil 400 ng/mL): 521.6
5-FU concentration, Initial ([1]; gimeracil 600 ng/mL): 519.5
5-FU concentration, 24 hr ([1]; gimeracil 600 ng/mL): 523.3
inhibiting DPD-mediated degradation of 5-FU ([1]; low concentrations of gimeracil in blood (200, 400, 600 ng/mL), Table 2 and FIG. 4): effective
5-FU Concentration 24 hrs after plasma separation ([2]; 45 minute incubation in blood): 538.1 ng/mL
5-FU Concentration Upon plasma separation ([2]; 45 minute incubation in blood): 533.3 ng/mL
5-FU Concentration 24 hrs after plasma separation ([2]; 24 hours incubation in blood): 551.9 ng/mL
5-FU Concentration Upon plasma separation ([2]; 24 hours incubation in blood): 551.8 ng/mL
5-FU Concentration 24 hrs after plasma separation ([2]; 48 hours incubation in blood): 578.4 ng/mL
5-FU Concentration Upon plasma separation ([2]; 48 hours incubation in blood): 581.3 ng/mL
effect of keeping gimeracil in blood without plasma separation for a longer time ([2]; 24 or 48 hours in blood (FIG. 5)): may cause 5-FU concentration to artificially increase
